Laboratory results reported in the supplement of paper PMC10307832.

Legend:
Assay in all cases: relative viability (nuclei count vs DMSO), 5 days (fraction); higher = more cells survive
[1] = system: NCI-H1437
Summary of the method: (§1)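 Relative viability is defined as nuclei in treated wells over nuclei in vehicle wells. Duplicate plates were run and medians reported. Lung cancer cell lines in 1536-well plates were dosed by pin tool one day after seeding, with one drug or with a fixed anchor-drug dose plus five library-drug doses (not always all listed) in √10 steps, and nuclei were counted after 5 days.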

[2] = system: LOU-NH91
Summary of the method: as §1

[3] = system: NCI-H2228
Summary of the method: as §1

[4] = system: HCC-366
Summary of the method: as §1

[5] = system: NCI-H2170
Summary of the method: as §1

[6] = system: SK-LU-1
Summary of the method: as §1

[7] = system: NCI-H1355
Summary of the method: as §1

[8] = system: NCI-H647
Summary of the method: as §1

[9] = system: NCI-H661
Summary of the method: as §1

[10] = system: NCI-H2342
Summary of the method: as §1

[11] = system: NCI-H596
Summary of the method: as §1

[12] = system: NCI-H1395
Summary of the method: as §1

[13] = system: BEN
Summary of the method: as §1

[14] = system: HCC-44
Summary of the method: as §1

[15] = system: NCI-H2009
Summary of the method: as §1

[16] = system: EKVX
Summary of the method: as §1

[17] = system: NCI-H2087
Summary of the method: as §1

[18] = system: SK-MES-1
Summary of the method: as §1

[19] = system: NCI-H1734
Summary of the method: as §1

[20] = system: NCI-H2405
Summary of the method: as §1

[21] = system: LC-2-ad
Summary of the method: as §1

[22] = system: HCC-827
Summary of the method: as §1

[23] = system: HARA
Summary of the method: as §1

Clc1ccc(Nc2nnc(Cc3ccncc3)c3ccccc23)cc1 [Vatalanib] + Cc1cc(Nc2cc(N3CCN(C)CC3)nc(Sc3ccc(NC(=O)C4CC4)cc3)n2)n[nH]1 [Tozasertib] (partner 0.1 µM)
relative viability ([1]; first compound 0.04 µM): 0.409
relative viability ([1]; first compound 0.1265 µM): 0.353
relative viability ([1]; first compound 0.4 µM): 0.41
relative viability ([1]; first compound 1.265 µM): 0.437
relative viability ([1]; first compound 4 µM): 0.392
relative viability ([2]; first compound 0.04 µM): 0.768
relative viability ([2]; first compound 0.1265 µM): 0.634
relative viability ([2]; first compound 1.265 µM): 0.652
relative viability ([2]; first compound 4 µM): 0.621
relative viability ([3]; first compound 0.04 µM): 0.235
relative viability ([3]; first compound 0.1265 µM): 0.309
relative viability ([3]; first compound 0.4 µM): 0.273
relative viability ([3]; first compound 1.265 µM): 0.227
relative viability ([3]; first compound 4 µM): 0.239
relative viability ([4]; first compound 0.04 µM): 0.119
relative viability ([4]; first compound 0.1265 µM): 0.0909
relative viability ([4]; first compound 0.4 µM): 0.161
relative viability ([4]; first compound 1.265 µM): 0.103
relative viability ([4]; first compound 4 µM): 0.095
relative viability ([5]; first compound 0.04 µM): 0.768
relative viability ([5]; first compound 0.1265 µM): 0.706
relative viability ([5]; first compound 0.4 µM): 0.796
relative viability ([5]; first compound 1.265 µM): 0.677
relative viability ([5]; first compound 4 µM): 0.777
relative viability ([6]; first compound 0.04 µM): 0.374
relative viability ([6]; first compound 0.1265 µM): 0.33
relative viability ([6]; first compound 0.4 µM): 0.404
relative viability ([6]; first compound 1.265 µM): 0.349
relative viability ([6]; first compound 4 µM): 0.322
relative viability ([7]; first compound 0.04 µM): 0.585
relative viability ([7]; first compound 0.1265 µM): 0.58
relative viability ([7]; first compound 0.4 µM): 0.664
relative viability ([7]; first compound 1.265 µM): 0.462
relative viability ([7]; first compound 4 µM): 0.521
relative viability ([8]; first compound 0.04 µM): 0.3
relative viability ([8]; first compound 0.1265 µM): 0.262
relative viability ([8]; first compound 0.4 µM): 0.352
relative viability ([8]; first compound 1.265 µM): 0.26
relative viability ([8]; first compound 4 µM): 0.259
relative viability ([9]; first compound 0.04 µM): 0.357
relative viability ([9]; first compound 0.1265 µM): 0.363
relative viability ([9]; first compound 0.4 µM): 0.331
relative viability ([9]; first compound 1.265 µM): 0.357
relative viability ([9]; first compound 4 µM): 0.366
relative viability ([10]; first compound 0.04 µM): 0.618
relative viability ([10]; first compound 0.1265 µM): 0.532
relative viability ([10]; first compound 0.4 µM): 0.492
relative viability ([10]; first compound 1.265 µM): 0.465
relative viability ([10]; first compound 4 µM): 0.492
relative viability ([11]; first compound 0.04 µM): 0.783
relative viability ([11]; first compound 0.1265 µM): 0.821
relative viability ([11]; first compound 0.4 µM): 0.831
relative viability ([11]; first compound 1.265 µM): 0.747
relative viability ([11]; first compound 4 µM): 0.952
relative viability ([12]; first compound 0.04 µM): 0.734
relative viability ([12]; first compound 0.1265 µM): 0.75
relative viability ([12]; first compound 0.4 µM): 0.747
relative viability ([12]; first compound 1.265 µM): 0.648
relative viability ([12]; first compound 4 µM): 0.792
relative viability ([13]; first compound 0.04 µM): 0.464
relative viability ([13]; first compound 0.1265 µM): 0.535
relative viability ([13]; first compound 0.4 µM): 0.557
relative viability ([13]; first compound 1.265 µM): 0.439
relative viability ([13]; first compound 4 µM): 0.412
relative viability ([14]; first compound 0.04 µM): 1.1
relative viability ([14]; first compound 0.1265 µM): 0.887
relative viability ([14]; first compound 0.4 µM): 0.91
relative viability ([14]; first compound 1.265 µM): 0.907
relative viability ([14]; first compound 4 µM): 0.815
relative viability ([15]; first compound 0.04 µM): 0.752
relative viability ([15]; first compound 0.1265 µM): 0.678
relative viability ([15]; first compound 0.4 µM): 0.864
relative viability ([15]; first compound 1.265 µM): 0.739
relative viability ([15]; first compound 4 µM): 0.682
relative viability ([16]; first compound 0.04 µM): 0.392
relative viability ([16]; first compound 0.1265 µM): 0.363
relative viability ([16]; first compound 0.4 µM): 0.427
relative viability ([16]; first compound 4 µM): 0.343
relative viability ([17]; first compound 0.04 µM): 0.254
relative viability ([17]; first compound 0.1265 µM): 0.261
relative viability ([17]; first compound 0.4 µM): 0.295
relative viability ([17]; first compound 1.265 µM): 0.228
relative viability ([17]; first compound 4 µM): 0.253
relative viability ([18]; first compound 0.04 µM): 0.951
relative viability ([18]; first compound 0.1265 µM): 0.897
relative viability ([18]; first compound 0.4 µM): 1.01
relative viability ([18]; first compound 1.265 µM): 0.813
relative viability ([18]; first compound 4 µM): 0.803
relative viability ([19]; first compound 0.04 µM): 0.31
relative viability ([19]; first compound 0.1265 µM): 0.232
relative viability ([19]; first compound 0.4 µM): 0.278
relative viability ([19]; first compound 1.265 µM): 0.276
relative viability ([19]; first compound 4 µM): 0.249
relative viability ([20]; first compound 0.04 µM): 0.798
relative viability ([20]; first compound 0.1265 µM): 0.726
relative viability ([20]; first compound 1.265 µM): 0.627
relative viability ([20]; first compound 4 µM): 0.663
relative viability ([21]; first compound 0.04 µM): 0.53
relative viability ([21]; first compound 0.1265 µM): 0.385
relative viability ([21]; first compound 1.265 µM): 0.469
relative viability ([21]; first compound 4 µM): 0.425
relative viability ([22]; first compound 0.04 µM): 0.378
relative viability ([22]; first compound 0.1265 µM): 0.423
relative viability ([22]; first compound 0.4 µM): 0.463
relative viability ([22]; first compound 1.265 µM): 0.429
relative viability ([22]; first compound 4 µM): 0.367
relative viability ([23]; first compound 0.04 µM): 0.0991
relative viability ([23]; first compound 0.1265 µM): 0.11
relative viability ([23]; first compound 0.4 µM): 0.108
relative viability ([23]; first compound 1.265 µM): 0.0945
relative viability ([23]; first compound 4 µM): 0.112
